Measurements: ChEMBL document CHEMBL4842348 (J Med Chem, 2021)
Values after ≈ are worked out from the molar mass of the structure shown. Values belong to the compound of their own block, whether it stands above or below them.

Experiments:
[1] = Solubility of the compound in pH 7 phosphate buffer; format: physicochemical
[2] = Cmax in C57BL/6 mouse at 1 mg/kg, iv and 2 mg/kg, po; format: ADME, organism-based; design: dose 2 mg/kg; conditions: in vivo
[3] = Dose normalized AUC in C57BL/6 mouse at 2 mg/kg, po; format: ADME, organism-based; conditions: in vivo
[4] = Total clearance in C57BL/6 mouse in whole blood at 1 mg/kg, iv; format: ADME, organism-based
[5] = Half life in C57BL/6 mouse at 1 mg/kg, iv; format: ADME, organism-based; conditions: in vivo
[6] = Oral bioavailability in C57BL/6 mouse at 2 mg/kg; format: ADME, organism-based; conditions: in vivo
[7] = Lipophilicity, logD of the compound at pH 7.3 by HPLC analysis; format: physicochemical; conditions: buffer
[8] = Solubility of the compound in pH 7 phosphate buffer by shake-flask method; format: physicochemical
[9] = Dose normalized AUC in CD1 mouse at 1 mg/kg, iv and 2 mg/kg, po; format: ADME, organism-based; conditions: in vivo
[10] = MRT in CD1 mouse at 1 mg/kg, iv and 2 mg/kg, po; format: ADME, organism-based; conditions: in vivo
[11] = Clearance in CD1 mouse at 1 mg/kg, iv and 2 mg/kg, po; format: ADME, organism-based; conditions: in vivo
[12] = Volume of distribution at steady state in CD1 mouse at 1 mg/kg, iv and 2 mg/kg, po; format: ADME, organism-based; conditions: in vivo, read-out: Vdss
[13] = Bioavailability in CD1 mouse at 1 mg/kg, iv and 2 mg/kg, po; format: ADME, organism-based; conditions: in vivo
[14] = Metabolic stability in liver microsomes (unknown origin); format: ADME, Microsome
[15] = Terminal half life in C57BL/6-transgenic mouse expressing human CETP at 100 mg/kg, po qd treated for 7 days measured for 240 hrs; format: ADME, organism-based; conditions: C57BL/6-transgenic expressing human CETP, in vivo, time 7 day, read-out: beta t1/2 (converted)
[16] = Half life in C57BL/6 mouse at 0.6 mg/kg, iv; format: ADME, organism-based; conditions: in vivo
[17] = Terminal half life in C57BL/6-transgenic mouse expressing human CETP at 200 mg/kg, po qd treated for 7 days measured for 240 hrs; format: ADME, organism-based; conditions: in vivo, 168 h, time 7 day
[18] = Terminal half life in DIO NFR-transgenic mouse plasma at 100 mg/kg, po once daily for 14 days; format: ADME, organism-based; conditions: time 14 day, read-out: beta t1/2 (converted)
[19] = Terminal half life in DIO NFR-transgenic mouse liver at 100 mg/kg, po once daily for 14 days; format: ADME, organism-based; conditions: in vivo, time 14 day
[20] = Terminal half life in DIO NFR-transgenic mouse adipose tissue at 100 mg/kg, po once daily for 14 days; format: ADME, organism-based; conditions: in vivo, time 14 day
[21] = Terminal half life in DIO NFR-transgenic mouse plasma at 30 mg/kg, po once daily for 14 days; format: ADME, organism-based; conditions: time 14 day, read-out: beta t1/2 (converted)
[22] = Terminal half life in DIO NFR-transgenic mouse liver at 30 mg/kg, po once daily for 14 days; format: ADME, organism-based; conditions: time 14 day, read-out: beta t1/2 (converted)
[23] = Terminal half life in DIO NFR-transgenic mouse adipose tissue at 30 mg/kg, po once daily for 14 days; format: ADME, organism-based; conditions: time 14 day, read-out: beta t1/2 (converted)

SMILES: COc1ccc(C(C)C)cc1-c1ccc(C(F)(F)F)cc1CN1C(=O)O[C@H](c2cc(C(F)(F)F)cc(C(F)(F)F)c2)[C@@H]1C
solubility [1]: < 1 µM
Cmax [2]: 160 nM
AUC/dose [3]: 0.29 µM·kg·h/mg
clearance [4]: 19 mL/min/kg
half-life [5]: 4.9 h
bioavailability [6]: 17%
logD [7]: > 6.9
solubility thermodynamic [8]: < 2 µM

SMILES: COc1ccc([C@H]2CC[C@H](C(=O)O)CC2)cc1-c1ccc(C(F)(F)F)cc1[C@@H]1CC[C@H]2[C@@H](c3cc(C(F)(F)F)cc(C(F)(F)F)c3)OC(=O)N12
logD [7]: 5.6

SMILES: COc1ccc([C@@H]2C[C@@H](O)[C@@H](O)C2)cc1-c1ccc(C(F)(F)F)cc1[C@@H]1CC[C@H]2[C@@H](c3cc(C(F)(F)F)cc(C(F)(F)F)c3)OC(=O)N12
logD [7]: 5.7

SMILES: COc1cc(F)c(-c2ccc(-c3nnc(N)o3)cc2C)cc1-c1ccc(C(F)(F)F)cc1[C@@H]1CC[C@H]2[C@@H](c3cc(C)cc(C(F)(F)F)c3)OC(=O)N12
logD [7]: 6.6

SMILES: COc1ccc([C@H]2C[C@H](C(=O)O)C2)cc1-c1ccc(C(F)(F)F)cc1[C@@H]1CC[C@H]2[C@@H](c3cc(C(F)(F)F)cc(C(F)(F)F)c3)OC(=O)N12
logD [7]: 5.1

SMILES: COc1ccc(C2CNC(=O)OC2(C)C)cc1-c1ccc(C(F)(F)F)cc1[C@@H]1CC[C@H]2[C@@H](c3cc(C(F)(F)F)cc(C(F)(F)F)c3)OC(=O)N12 (some centres not stated)
logD [7]: 5.7

SMILES: COc1ccc(-c2ccc(C(=O)O)cc2C)cc1-c1cnc(C(C)(F)F)nc1CN1C(=O)O[C@H](c2cc(C(F)(F)F)cc(C(F)(F)F)c2)[C@@H]1C
logD [7]: 4.6
solubility thermodynamic [8]: 20 µM (≈ 14.2 µg/mL)

SMILES: COc1ccc(-c2ccc(C(=O)O)cc2C)cc1-c1ccc(C(F)(F)F)nc1CN1C(=O)O[C@H](c2cc(C(F)(F)F)cc(C(F)(F)F)c2)[C@@H]1C
logD [7]: 5.3
solubility thermodynamic [8]: 29 µM (≈ 20.7 µg/mL)

SMILES: COc1ccc(-c2ccc(C(=O)O)cc2C)cc1-c1cnc(N(C)C)nc1CN1C(=O)O[C@H](c2cc(C(F)(F)F)cc(C(F)(F)F)c2)[C@@H]1C
logD [7]: 4.8
solubility thermodynamic [8]: 43 µM (≈ 29.6 µg/mL)

SMILES: COc1ccc([C@H]2CCC(=O)N[C@@H]2C)cc1-c1ccc(C(F)(F)F)cc1[C@@H]1CC[C@H]2[C@@H](c3cc(C(F)(F)F)cc(C(F)(F)F)c3)OC(=O)N12
logD [7]: 5.9

SMILES: COc1ccc(-c2ccc(C(=O)O)cc2C)cc1-c1cnc(C(F)(F)F)nc1CN1C(=O)O[C@H](c2cc(C(F)(F)F)cc(C(F)(F)F)c2)[C@@H]1C
logD [7]: 4.9
solubility thermodynamic [8]: 6 µM (≈ 4.28 µg/mL)

SMILES: COc1ncc(-c2ccc(C(=O)O)cc2C)cc1-c1cc(C(F)(F)F)c(OC)nc1CN1C(=O)O[C@H](c2cc(C(F)(F)F)cc(C(F)(F)F)c2)[C@@H]1C
logD [7]: 5.7
solubility thermodynamic [8]: 5 µM (≈ 3.72 µg/mL)

SMILES: COc1ccc(-c2ccc(C(=O)O)cc2C)cc1-c1cnc(N2CC(F)C2)nc1CN1C(=O)O[C@H](c2cc(C(F)(F)F)cc(C(F)(F)F)c2)[C@@H]1C
logD [7]: 4.6
solubility thermodynamic [8]: 8 µM (≈ 5.75 µg/mL)

SMILES: COc1ccc(-c2ccc(C(=O)O)cc2C)cc1-c1ccc(C(F)(F)F)cc1CN1C(=O)O[C@H](c2cc(C(F)(F)F)cc(C(F)(F)F)c2)[C@@H]1C
solubility [1]: 16 µM (≈ 11.4 µg/mL)
Cmax [2]: 430 nM
AUC/dose [3]: 0.86 µM·kg·h/mg
clearance [4]: 18 mL/min/kg
half-life [5]: 2.5 h
bioavailability [6]: 65%

SMILES: Cc1cc(C(=O)O)ccc1-c1ccc(Cl)c(-c2ccc(C(F)(F)F)cc2CN2C(=O)O[C@H](c3cc(C(F)(F)F)cc(C(F)(F)F)c3)[C@@H]2C)c1
solubility [1]: 43 µM (≈ 30.8 µg/mL)
Cmax [2]: 390 nM
AUC/dose [3]: 1.8 µM·kg·h/mg
clearance [4]: 5.6 mL/min/kg
half-life [5]: 62 h
bioavailability [6]: 43%
half-life [15]: 83 h
logD [7]: 6.2
solubility thermodynamic [8]: 43 µM (≈ 30.8 µg/mL)

SMILES: COc1ncc(-c2cc(-c3ccc(C(=O)O)cc3C)ccc2OC)c(CN2C(=O)O[C@H](c3cc(C(F)(F)F)cc(C(F)(F)F)c3)[C@@H]2C)n1
logD [7]: 4.2
solubility thermodynamic [8]: 52 µM (≈ 35.1 µg/mL)

SMILES: COc1cc(F)c(C(C)C)cc1-c1ccc(C(F)(F)F)cc1CN1C(=O)O[C@H](c2cc(C(F)(F)F)cc(C(F)(F)F)c2)[C@@H]1C [ANACETRAPIB]
solubility [1]: < 1 µM
AUC/dose [3]: 0.36 µM·kg·h/mg
half-life [16]: 3.6 h
beta t1/2 [17]: 121 h
logD [7]: > 6.9
half-life at […] [18]: 27 h
beta t1/2 [19]: 49 h
beta t1/2 [20]: 150 h

SMILES: Cc1cc(C)c2c(c1)[C@@H](N(Cc1cc(C(F)(F)F)cc(C(F)(F)F)c1)c1nnn(C)n1)CCCN2C[C@H]1CC[C@H](C(=O)O)CC1 [EVACETRAPIB]
half-life at […] [21]: 7.1 h
half-life at […] [22]: 18 h
half-life at […] [23]: 1.3 h

The remaining lines, values ahead:

logD [7]: 5.5
AUC/dose [9]: 3.4 µM·h
MRT [10]: 5.8 h
clearance [11]: 6.6 mL/min/kg
Vd [12]: 2.3 L/kg
bioavailability [13]: 60%
SMILES: COc1cc(F)c(-c2ccc(C(=O)O)cc2C)cc1-c1ccc(C(F)(F)F)cc1[C@@H]1CC[C@H]2[C@@H](c3cc(C(F)(F)F)cc(C(F)(F)F)c3)OC(=O)N12

Stabilty [14]: Unstable
SMILES: COc1cc(F)c(-c2ccc(C(=O)O)cc2C)cc1-c1ccc(C(F)(F)F)cc1[C@@H]1CC[C@H]2[C@@H](c3cc(C)cc(C(F)(F)F)c3)OC(=O)N12

AUC/dose [9]: 0.7 µM·h
MRT [10]: 2.8 h
clearance [11]: 33 mL/min/kg
Vd [12]: 5.6 L/kg
bioavailability [13]: 140%
SMILES: COc1ccc(-c2ccc(C(=O)O)cc2C)cc1-c1cnc(N(C)C)nc1[C@@H]1CC[C@H]2[C@@H](c3cc(C(F)(F)F)cc(C(F)(F)F)c3)OC(=O)N12

logD [7]: 5
SMILES: COc1ncc(-c2ccc(C(=O)O)cc2C)cc1-c1ccc(C(F)(F)F)cc1[C@@H]1CC[C@H]2[C@@H](c3cc(F)cc(C(F)(F)F)c3)OC(=O)N12

logD [7]: 4.8
Stabilty [14]: Unstable
SMILES: COc1ncc(-c2c(C)cc(C(=O)O)cc2C)cc1-c1ccc(C(F)(F)F)cc1[C@@H]1CC[C@H]2[C@@H](c3cc(F)cc(C(F)(F)F)c3)OC(=O)N12

logD [7]: 4.7
SMILES: COc1ncc(-c2ccc(C(=O)O)cc2C)cc1-c1ccc(C(F)(F)F)cc1[C@@H]1CC[C@H]2[C@@H](c3cccc(C(F)(F)F)c3)OC(=O)N12

logD [7]: 4.7
SMILES: COc1ccc(CCC(=O)O)cc1-c1ccc(C(F)(F)F)cc1[C@@H]1CC[C@H]2[C@@H](c3cc(C(F)(F)F)cc(C(F)(F)F)c3)OC(=O)N12

logD [7]: 5.1
solubility thermodynamic [8]: 9 µM (≈ 6.42 µg/mL)
SMILES: COc1ncc(-c2ccc(C(=O)O)cc2C)cc1-c1ccc(C(F)(F)F)nc1CN1C(=O)O[C@H](c2cc(C(F)(F)F)cc(C(F)(F)F)c2)[C@@H]1C

logD [7]: 6.6
Stabilty [14]: Unstable
SMILES: COc1ccc(-c2ccc(C(=O)O)cc2C)cc1-c1cc(C(C)C)c(N(C)C)nc1[C@@H]1CC[C@H]2[C@@H](c3cc(C(F)(F)F)cc(C(F)(F)F)c3)OC(=O)N12

logD [7]: 5.1
SMILES: COc1cc(F)c(-c2ccc(C(=O)O)cc2C)cc1-c1ccc(C(F)(F)F)cc1[C@@H]1CC[C@H]2[C@@H](c3cc(F)cc(C(F)(F)F)c3)OC(=O)N12

logD [7]: 5
SMILES: COc1ccc(C(C)CC(=O)O)cc1-c1ccc(C(F)(F)F)cc1[C@@H]1CC[C@H]2[C@@H](c3cc(C(F)(F)F)cc(C(F)(F)F)c3)OC(=O)N12 (some centres not stated)
